Legend:
HeLa cells = experiment: Changes of glutathione concentration in the presence of an oxidant (H2O2), HeLa cells; assay type: cell-based, human
Method: 100 μM of H2O2, the oxidant, was treated to HeLa cells prepared in Experimental Example 2 containing glutathione, the anti-oxidant, at 37° C. for 30 minutes to induce the changes of glutathione level. 20 μM of the compound prepared in Example 2 was added thereto, followed by culture at 37° C. for 20 minutes. The cells were washed with DPBS (Dulbecco's Phosphate Buffered Saline) three times to eliminate the remaining compound, followed by imaging with confocal laser scanning microscope (Fluoview 1200, Olympus, Japan). At this time, the emitting filter with the excitation wavelength of 635 nm and the band-path (BP) of 655˜755 nm was used.

C57BL/6 mouse [1] = experiment: Detection of glutathione in a mouse model with N-methylmaleimide (NMM), IVIS imaging; assay type: in vivo
Method: 200 μL of HEPES (4-(2-hydroxyethyl)piperazine-1-ethanesulfonic acid) buffer (10 mM, pH=7.4) containing 20 mM of N-methylmaleimide (NMM) known as a thiol blocker was administered to each C57BL/6 mouse (7˜8 weeks old, female, Jackson Laboratory) via intravenous injection. 20 minutes later, 200 μL of HEPES (4-(2-hydroxyethyl)piperazine-1-ethanesulfonic acid) buffer (10 mM, pH=7.4) containing 50 mM of the compound prepared in Example 2 was administered to the mouse via intravenous injection. 20 minutes later, the strength of fluorescence was observed by using the epifluorescence mode of In Vivo Imaging System (IVIS) spectrum (Caliper LifeSciences, USA) equipped with the filter having the wavelengths of 675 nm and 720 nm [the strength of fluorescence was measured by Living Image Software 4.3.1 (Caliper Life Sciences, USA)].

neutrophils = experiment: Capacity of diagnosing sepsis: bone marrow neutrophils infected with GFP tagged Pseudomonas Aeruginosa 01 (PA01); assay type: cell-based, mouse
Method: Neutrophils were extracted from the bone marrow of C57BL/6 mouse (7˜8 weeks old, female, Jackson Laboratory). The cells were infected with green fluorescent protein (GFP) tagged Pseudomonas Aeruginosa 01 (PA01) that is the causing bacteria of sepsis. 24 hours later, 10 μM of the compound prepared in Example 2 was added thereto, followed by reaction at 37° C. for 20 minutes. At this time, the emitting filter with the excitation wavelength of 635 nm and the band-path (BP) of 655˜755 nm was used.

RAW 264.7 cells = experiment: Changes of glutathione concentration in the presence of an oxidant (peroxynitrite), RAW 264.7 cells; assay type: cell-based; settings: for red fluorescence under confocal laser scanning microscope: 20 μM compound
Method: RAW 264.7 cells (macrophage cell line, Korea Cell Line Bank) were cultured in RPMI 1640 (Roswell Park Memorial Institute) supplemented with 10% heat-inactivated fetal bovine serum (FBS), 100 U/mL penicillin, and 100 U/mL streptomycin in a 37° C. 5% CO2 incubator.
RAW 264.7 cells displaying the characteristics of generating ROS (Reactive Oxygen Species) or RNS (Reactive Nitrogen Species) were treated with 1 μg/mL of lipopolysaccharide (LPS) for 20 minutes, 50 ng/mL of interferon-γ for 16 hours, and 20 μM of phorbol 12-myristate 13-acetate (PMA) for 20 minutes in order to induce the generation of endogenous feroxynitrite having the characteristics of an oxidant. Then, the cells were seeded in 35-mm glass bottomed dishes at the density of 3×10^5 cells/dish in 1640 medium. 24 hours later, the compound prepared in Example 2 was treated thereto at the concentration of 20 μM for 20 minutes. The cells were washed with DPBS (Dulbecco's Phosphate Buffered Saline) three times, followed by imaging with confocal laser scanning microscope (Fluoview 1200, Olympus, Japan). At this time, the emitting filter with the excitation wavelength of 635 nm and the band-path (BP) of 655˜755 nm was used.

[2] = Absorption and fluorescence spectrum according to the concentration of glutathione; assay type: biochemical
Method: (§1) 10 μM of the compound prepared in Example 2 and glutathione were added to HEPES (4-(2-hydroxyethyl)piperazine-1-ethanesulfonic acid) buffer (10 mM, pH=7.4) containing 10% dimethylsulfoxide (DMSO) with raising slowly the concentration of glutathione from 0 to 50 μM, during which the changes of absorption spectrum were observed using UV-vis sepctra (Scinco 3000 spectrophotometer, 1 cm quartz cell) at 25° C.
(§2) The following experiment was performed by the same manner as described in Experimental Example <4-1> except that fluorescence spectrum was observed by using RF-5310/PC fluorescence spectrometer (Shimada, 1 cm quartz cell) instead of observing absorption spectrum via UV-vis sepctra (Scinco 3000 spectrophotometer, 1 cm quartz cell) (λex=730 nm, λem=736 nm, slit:10/10 nm).
as §1, with “Example 3” for “Example 2”, “to 100” for “to 50”
as §2, with “<16-1>” for “<4-1>”

C57BL/6 mouse [3] = experiment: Detection of glutathione in a mouse model with acetaminophen (APAP), IVIS imaging; assay type: in vivo
Method: 200 μL of HEPES (4-(2-hydroxyethyl)piperazine-1-ethanesulfonic acid) buffer (10 mM, pH=7.4) containing 300 mg/kg of acetaminophen (APAP) known as a pain killer was administered to each C57BL/6 mouse (7˜8 weeks old, female, Jackson Laboratory) via intravenous injection. The said APAP works as a pain killer in vivo when administered at a proper dose, but when treated at over-dose, it can damage organs and also reduce in vivo glutathione. 20 minutes later, 200 μL of HEPES (4-(2-hydroxyethyl)piperazine-1-ethanesulfonic acid) buffer (10 mM, pH=7.4) containing 50 mM of the compound prepared in Example 2 was administered to the mouse via intravenous injection. 20 minutes later, the strength of fluorescence was observed by using the epifluorescence mode of In Vivo Imaging System (IVIS) spectrum (Caliper LifeSciences, USA) equipped with the filter having the wavelengths of 675 nm and 720 nm [the strength of fluorescence was measured by Living Image Software 4.3.1 (Caliper Life Sciences, USA)].

[4] = mouse treated with NMM together with the compound
[5] = mouse treated with the compound alone
[6] = mouse treated with the compound alone, intravenous injection, 20 minutes
[7] = 10 μM compound, glutathione not added
[8] = 10 μM compound, glutathione raised from 0 to 50 μM

SMILES: CCCN1/C(=C/C=C2\CCCC(/C=C/C3=[N+](CCC)c4ccccc4C3(C)C)=C2N2CCN(S(=O)(=O)c3cccc4c(N(C)C)cccc34)CC2)C(C)(C)c2ccccc21.[I-] [Example 2, 2-((E)-2-((E)-3-((E)-2-(3,3-dimethyl-1-propylindolin-2-ylidene)ethylidene)-2-(4-(5-(dimethylamino)naphthalene-1-ylsulfonyl)piperazine-1-yl)cyclohex-1-enyl)binyl)-3,3-dimethyl-1-propyl-3H-indolium iodide]
- red fluorescence under confocal laser scanning microscope (HeLa cells; HeLa cells pre-treated with 100 μM H2O2, 20 μM compound): red fluorescence was not observed
- red fluorescence under confocal laser scanning microscope (HeLa cells; HeLa cells, 20 μM compound, 20 minutes): strong red fluorescence
- reaction to oxidized glutathione, glutathione disulfide (GSSG) (HeLa cells; HeLa cells, H2O2): did not react
- red fluorescence in liver, kidney, lung, and spleen, IVIS spectrum (C57BL/6 mouse [1]; [4]): red fluorescence was not observed
- red fluorescence of the mouse, IVIS spectrum (C57BL/6 mouse [1]; [4]): red fluorescence was not observed
- red fluorescence in liver, kidney, lung, and spleen, IVIS spectrum (C57BL/6 mouse [1]; [5]): strong red fluorescence was observed
- red fluorescence of the mouse, IVIS spectrum (C57BL/6 mouse [1]; [6]): strong red fluorescence was observed
- red fluorescence indicating glutathione level in the red fluorescence channel (neutrophils; neutrophils infected with GFP tagged PA01, 10 μM compound): reduced
- red fluorescence in the red fluorescent channel (neutrophils; neutrophils not-infected with GFP tagged PA01, 10 μM compound): strong red fluorescence was detected
- red fluorescence under confocal laser scanning microscope (RAW 264.7 cells; RAW 264.7 cells with induced peroxynitrite (LPS, interferon-γ, PMA)): red fluorescence was not observed
- red fluorescence under confocal laser scanning microscope (RAW 264.7 cells; RAW 264.7 cells, 20 minutes): strong red fluorescence
- reaction to oxidized glutathione, glutathione disulfide (GSSG) (RAW 264.7 cells; RAW 264.7 cells, peroxynitrite): did not react
- absorption strength at 750 nm [2, 7]: weak absorption strength
- fluorescence signal at 736 nm [2, 7]: weak fluorescence signal
- absorption signal at 750 nm [2, 8]: getting stronger
- fluorescence signal at 736 nm [2, 8]: getting stronger
- dependence of the reaction on glutathione concentration ([2]; conclusion from absorption and fluorescence spectra): glutathione dose-dependent
- red fluorescence of the mouse, IVIS spectrum (C57BL/6 mouse [3]; mouse treated with acetaminophen (APAP) 300 mg/kg together with the compound): red fluorescence was not observed
- red fluorescence in liver, kidney, lung, and spleen, IVIS spectrum (C57BL/6 mouse [3]; mouse treated with acetaminophen (APAP) together with the compound): red fluorescence was not observed
- red fluorescence in liver, kidney, lung, and spleen, IVIS spectrum (C57BL/6 mouse [3]; [5]): strong red fluorescence was observed
- red fluorescence of the mouse, IVIS spectrum (C57BL/6 mouse [3]; [6]): strong red fluorescence was observed

Reference: patent publication US9951226B2, “Compound based on cyanine scaffold for diagnosis sepsis by selectively detect glutathione” (EWHA UNIVERSITY—INDUSTRY COLLABORATION FOUNDATION, priority 2014, dated 2018)
